We go through 9 molecules from ChEMBL document CHEMBL2086302, “An investigation into the structure-activity relationships associated with the systematic modification of the β(2)-adrenoceptor agonist indacaterol” (Bioorg Med Chem Lett, 2012).

As usually defined, the Ki is the dissociation constant of the complex between target and ligand, obtained from inhibition or displacement. For orientation: EC50 means the concentration at which the effect is half-maximal. The term IC50 denotes the concentration needed to halve the response being measured. What is called Kd is a measure of binding affinity in units of concentration.

Assay [1] deals with Beta-1 adrenergic receptor (Homo sapiens, UniProt P08588). Kind of assay: Binding affinity to human beta1-adrenoceptor by radioligand binding assay.
Chain of Beta-1 adrenergic receptor (P08588 whole entry): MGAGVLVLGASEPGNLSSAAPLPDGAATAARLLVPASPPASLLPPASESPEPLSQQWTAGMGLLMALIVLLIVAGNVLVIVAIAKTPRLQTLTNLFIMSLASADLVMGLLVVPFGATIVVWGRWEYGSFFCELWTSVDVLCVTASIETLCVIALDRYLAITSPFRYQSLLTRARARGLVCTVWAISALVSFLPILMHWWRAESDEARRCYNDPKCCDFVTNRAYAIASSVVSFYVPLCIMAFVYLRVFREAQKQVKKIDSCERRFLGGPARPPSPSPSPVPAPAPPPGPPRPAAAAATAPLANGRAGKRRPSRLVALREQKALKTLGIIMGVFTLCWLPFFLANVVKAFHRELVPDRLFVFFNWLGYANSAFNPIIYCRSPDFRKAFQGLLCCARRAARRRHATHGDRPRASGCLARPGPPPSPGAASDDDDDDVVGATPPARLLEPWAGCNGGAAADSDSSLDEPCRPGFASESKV
The target of assay [2] is T1, D(2) dopamine receptor (Homo sapiens, UniProt P14416). As to the kind of experiment: Intrinsic efficacy at human dopamine D2 receptor expressed in CHO cells assessed as increase in GTPgamma35S binding by scintillation proximity assay relative to dopamine. The format is functional, cell-based.
T1 sequence (P14416 whole entry): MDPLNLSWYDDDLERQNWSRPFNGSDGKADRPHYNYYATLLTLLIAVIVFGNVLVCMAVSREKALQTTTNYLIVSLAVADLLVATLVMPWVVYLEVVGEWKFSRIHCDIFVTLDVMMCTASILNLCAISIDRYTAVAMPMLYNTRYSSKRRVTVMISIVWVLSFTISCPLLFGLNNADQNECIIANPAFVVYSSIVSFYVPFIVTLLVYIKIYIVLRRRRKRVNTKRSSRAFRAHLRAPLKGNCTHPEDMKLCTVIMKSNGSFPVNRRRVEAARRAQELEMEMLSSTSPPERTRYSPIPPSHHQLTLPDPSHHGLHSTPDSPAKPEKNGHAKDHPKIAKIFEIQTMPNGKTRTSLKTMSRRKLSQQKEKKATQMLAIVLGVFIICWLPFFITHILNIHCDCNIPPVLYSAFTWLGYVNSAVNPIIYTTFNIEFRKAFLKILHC
The species named for assay [3] is Homo sapiens. As to the kind of experiment: Selectivity ratio of Ki for human beta1-adrenoceptor to Ki for human beta2-adrenoceptor.
Assay [4] addresses T2, Beta-2 adrenergic receptor (Homo sapiens, UniProt P07550). Kind of assay: Binding affinity to human beta2-adrenoceptor by radioligand binding assay.
Target sequence in this assay (P07550 whole entry): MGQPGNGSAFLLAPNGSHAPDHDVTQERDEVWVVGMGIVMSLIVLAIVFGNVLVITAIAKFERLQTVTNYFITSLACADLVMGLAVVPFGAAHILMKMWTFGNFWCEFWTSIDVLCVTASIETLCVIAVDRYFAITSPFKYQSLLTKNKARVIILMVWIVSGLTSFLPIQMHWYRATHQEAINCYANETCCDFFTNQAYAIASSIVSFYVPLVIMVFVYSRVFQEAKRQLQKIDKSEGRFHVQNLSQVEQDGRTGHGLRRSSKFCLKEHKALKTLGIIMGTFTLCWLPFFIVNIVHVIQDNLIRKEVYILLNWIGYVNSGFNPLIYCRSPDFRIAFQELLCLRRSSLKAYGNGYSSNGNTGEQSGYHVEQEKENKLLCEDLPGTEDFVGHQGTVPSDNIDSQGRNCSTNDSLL
In assay [5] the target is T1, D(2) dopamine receptor. Kind of assay: Agonist activity at human dopamine D2 receptor expressed in CHO cells assessed as increase in GTPgamma35S binding by scintillation proximity assay. Format: functional, cell-based. On the technique in general: GTPγS is a poorly hydrolysed GTP analogue; its binding reports G protein activation.
For assay [6], the target named is T2, Beta-2 adrenergic receptor. As to the kind of experiment: Intrinsic efficacy at beta2-adrenoceptor in human bronchial smooth-muscle cell by cAMP assay. The format is functional. On the technique in general: Cyclic AMP is a second messenger, typically raised through Gs and lowered through Gi signalling.
Target sequence in this assay (P07550 whole entry, looked up): as the sequence (P07550 whole entry) above
Assay [7] has as its target Beta-2 adrenergic receptor (Cavia porcellus) (UniProt Q8K4Z4). Kind of assay: Agonist activity at beta2-adrenoceptor in guinea-pig tracheal-strip assessed as duration of action on inhibition of electrically-stimulated muscle contraction. Format: functional, tissue-based. To be noted: Trachea.
The target in assay [8] is Beta-2 adrenergic receptor (Cavia porcellus, UniProt Q8K4Z4). Kind of assay: Agonist activity at beta2-adrenoceptor in guinea-pig tracheal-strip assessed as inhibition of electrically-stimulated muscle contraction. The format is functional, tissue-based, Trachea.
Chain of Beta-2 adrenergic receptor (Cavia porcellus, UniProt Q8K4Z4) (Q8K4Z4 whole entry): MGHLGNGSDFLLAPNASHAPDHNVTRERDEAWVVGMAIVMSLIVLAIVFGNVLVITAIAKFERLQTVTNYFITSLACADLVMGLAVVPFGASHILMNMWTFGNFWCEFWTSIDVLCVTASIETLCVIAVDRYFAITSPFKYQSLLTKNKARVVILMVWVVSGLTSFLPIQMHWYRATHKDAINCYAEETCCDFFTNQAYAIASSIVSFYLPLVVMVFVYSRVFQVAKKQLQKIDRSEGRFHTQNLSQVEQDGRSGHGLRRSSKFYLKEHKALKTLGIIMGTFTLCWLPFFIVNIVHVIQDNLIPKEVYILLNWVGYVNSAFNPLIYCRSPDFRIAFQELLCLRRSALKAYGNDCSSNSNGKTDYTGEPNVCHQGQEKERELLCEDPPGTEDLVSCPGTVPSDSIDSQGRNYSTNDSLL
The target of assay [9] is T2, Beta-2 adrenergic receptor. As to the kind of experiment: Ratio of indacaterol EC50 to compound EC50 for beta2-adrenoceptor in human bronchial smooth-muscle cell by cAMP assay. The format is functional.
Target sequence in this assay (P07550 whole entry, looked up): as the sequence (P07550 whole entry) above
Assay [10] deals with T2, Beta-2 adrenergic receptor. As to the kind of experiment: Agonist activity at beta2-adrenoceptor in human bronchial smooth-muscle cell by cAMP assay. Format: functional.
Target sequence in this assay (P07550 whole entry): as above
For assay [11], the target named is T2, Beta-2 adrenergic receptor. Kind of assay: Ratio of indacaterol Ki to compound Ki for human beta2-adrenoceptor.
Target sequence in this assay (P07550 whole entry, looked up): as the sequence (P07550 whole entry) above
Assay [12] deals with T2, Beta-2 adrenergic receptor. Kind of assay: Kinetic binding affinity to human beta2-adrenoceptor.
Target sequence in this assay (P07550 whole entry): as above
The test system of assay [13] is Rhesus monkey. Kind of assay: Bronchorelaxant activity in rhesus monkey assessed as inhibition of methacholine-induced bronchoconstriction. Format: functional. To be noted: Macaca mulatta.

Structures are written as SMILES.

Chain of Beta-2 adrenergic receptor (Cavia porcellus) (Q8K4Z4 whole entry, looked up): as the sequence (Q8K4Z4 whole entry) above

For the molecule `O=c1[nH]c2c(O)ccc(CCNCCS(=O)(=O)CCCOCCc3ccccc3)c2s1` [SIBENADET], the Ki is 3920 nM in assay [1] and 4 nM in assay [4]. Also, the Efficacy in assay [2] was determined as 106%. The Ratio Ki in [3] came out at 981. In addition, in [5], the EC50 amounted to 4.5 nM.
For `CCCCc1ccc2c(c1)CC(NC[C@H](O)c1ccc(O)c3[nH]c(=O)ccc13)C2` (some centres undefined), the Ki was 259 nM in [1] and 19.4 nM in assay [4]. In assay [3], the Ratio Ki stood at 13.4.
In the case of `Cc1c(C)c(C)c2c(c1C)CC(NC[C@H](O)c1ccc(O)c3[nH]c(=O)ccc13)C2`, the Ki in [1] is 421 nM; in [4], 175 nM. The Ratio Ki in assay [3] is 2.4.
Consider `CCc1cc2c(cc1CC)CC(NCC(O)c1c(C)cc(O)c3[nH]c(=O)ccc13)C2` (racemic), for which the Ki in assay [1] is greater than 10000 nM; in assay [4] it was 515 nM. For the same molecule, the Ratio Ki in assay [3] was greater than 19.
`NC(=O)C(c1ccccc1)(c1ccccc1)[C@@H]1CCN(CCc2ccc3c(c2)CCO3)C1` [DARIFENACIN] gave an Efficacy in assay [6] of 85%. Further, the TIME in assay [7] is 0.5 h.
Regarding `CCc1cc2c(cc1CC)CC(NCCc1ccc(O)c3[nH]c(=O)ccc13)C2`, the Ki came to 478 nM in assay [1] and 261 nM in [4]. The TIME in assay [7] was found to be 2.18 h. Also, the Ratio Ki in assay [3] came out at 1.8. In addition, the EC50 in assay [5] is greater than 10000 nM. In addition, the IC50 in assay [8] was 240 nM.
Consider `CCc1cc2c(cc1CC)CC(NCC(O)c1ccc(O)c3[nH]c(=O)c(C)cc13)C2` (racemic), for which the inhibition constant (Ki) was found to be 227 nM in assay [1] and 382 nM in assay [4]. Moreover, the Ratio Ki in assay [3] is 0.59.
Consider `CCc1cc2c(cc1CC)CC(C)(NC[C@H](O)c1ccc(O)c3[nH]c(=O)ccc13)C2`, for which the Ratio EC50 in assay [9] stood at 7.3. For the same molecule, the Efficacy in [6] worked out at 116%. Moreover, the Ki in assay [1] was found to be 1.9 nM; in assay [4], 0.6 nM. Moreover, in [10], the EC50 is 0.28 nM. For the same molecule, the figures for the Ratio Ki in assay [11] and in [3] were greater than 10 and 3.2, respectively. The molecule further yielded a Kd in assay [12] of 0.26 nM.
For the molecule `CCc1cc2c(cc1CC)CC(NC[C@H](O)c1ccc(O)c3c1CCC(=O)N3)C2`, the ED80 in assay [13] came to 0.0532 mg/kg. In addition, the Ki in assay [1] amounted to 183 nM; in assay [4], 45 nM. Besides, the TIME in [7] came to 0.542 h. The Ratio Ki in [3] worked out at 4.1. Further, the IC50 in assay [8] was 3.9 nM.
